Results as given in article PMC9723620 (2022).
One block for each compound: values may come before it.

Assays:
[1] = tested on: A-site RNA (RNA, rRNA) CGGCGUCACACCUCGGGGUGAAGUCGCCG; assay: fluorescent intercalator displacement (FID); details: 100 mM KCl, 4 mM MgCl2, 20 mM Tris-HCl pH 7.0, TO-PRO displaced, RNA 0.5 μM
[2] = tested on: NEAT1_2 TH (RNA, triplex) AGGUGUUUCUUUUACUGAGUGCAGCCC/UGGCCGCACUCAGGUUUUGCUUUUCACCUUCCCAUCUGUGAAAGAGUGAGCAGGAAAAAGCAAAA; assay: fluorescent intercalator displacement (FID) screen; details: 100 mM KCl, 4 mM MgCl2, 20 mM Tris-HCl pH 7.0, 2% DMSO, TO-PRO displaced, RNA 0.25 μM, hit at 10 μM
[3] = tested on: NEAT1_2 TH (5' biotin-TEG, immobilized) (RNA, triplex) AGGUGUUUCUUUUACUGAGUGCAGCCC/UGGCCGCACUCAGGUUUUGCUUUUCACCUUCCCAUCUGUGAAAGAGUGAGCAGGAAAAAGCAAAA; assay: grating-coupled interferometry (waveRAPID); details: 150 mM NaCl, 4 mM MgCl2; 10 mM HEPES pH 7.4, 0.005% Tween-20, 1% DMSO, 25°C; tested at 10 μM
[4] = tested on: NEAT1_2 TH (RNA, triplex) AGGUGUUUCUUUUACUGAGUGCAGCCC/UGGCCGCACUCAGGUUUUGCUUUUCACCUUCCCAUCUGUGAAAGAGUGAGCAGGAAAAAGCAAAA; assay: fluorescent intercalator displacement (FID); details: 100 mM KCl, 4 mM MgCl2, 20 mM Tris-HCl pH 7.0, TO-PRO displaced, RNA 0.5 μM
[5] = tested on: NEAT1_2 TH (RNA, triplex) AGGUGUUUCUUUUACUGAGUGCAGCCC/UGGCCGCACUCAGGUUUUGCUUUUCACCUUCCCAUCUGUGAAAGAGUGAGCAGGAAAAAGCAAAA; assay: fluorescence increase on binding; details: 100 mM KCl, 4 mM MgCl2; 20 mM Tris-HCl pH 7.0; RNA 0.5 μM, equimolar dye; 220.7-fold fluorescence increase
[6] = tested on: A-site RNA (RNA, rRNA) CGGCGUCACACCUCGGGGUGAAGUCGCCG; assay: fluorescence increase on binding; details: 100 mM KCl, 4 mM MgCl2; 20 mM Tris-HCl pH 7.0; RNA 0.5 μM, equimolar dye; 116.3-fold fluorescence increase
[7] = tested on: fragment 2 (f2), biotinylated (RNA, other) UGGCCGCACUCAGGUUUUGCUUUUCACCUUCCCAUCUGUGAAAGAGUGAGCAGGAAAAAGCAAAA; assay: grating-coupled interferometry (waveRAPID); details: 150 mM NaCl, 4 mM MgCl2; 10 mM HEPES pH 7.4, 0.005% Tween-20, 1% DMSO, 25°C; tested at 10 μM
[8] = tested on: fragment 1 (f1), biotinylated (RNA, single strand) AGGUGUUUCUUUUACUGAGUGCAGCCC; assay: grating-coupled interferometry (waveRAPID); details: 150 mM NaCl, 4 mM MgCl2; 10 mM HEPES pH 7.4, 0.005% Tween-20, 1% DMSO, 25°C; tested at 10 μM

SMILES: CC(=O)NC[C@H]1CN(c2ccc(N3CCOCC3)c(F)c2)C(=O)O1
- binding ([1]; no effect at 50 μM): no

SMILES: CC1(C)CC(Oc2ccc(-c3ccc(-c4cn[nH]c4)cc3O)nn2)CC(C)(C)N1
- binding ([4]; at higher concentration): weak
- binding ([1]; at higher concentration): weak

SMILES: CN[C@@H]1[C@@H](O)[C@@H](O[C@@H]2[C@@H](O)[C@H](O[C@H]3O[C@H]([C@@H](C)O)[C@@H](O)[C@H](O)[C@H]3N)[C@@H](N)C[C@H]2N)OC[C@]1(C)O
- binding ([4]; fluorescence to 0.72, higher concentration only): weak
- binding ([1]; both concentrations): yes

SMILES: CNc1ncc(CN2CCCC(c3nc(-c4cccs4)cc(=O)[nH]3)C2)cn1 (centres unmarked)
- binding ([4]; two concentrations): no
- binding ([1]; two concentrations): no

SMILES: Cc1cc(O)c2c(c1)C(=O)c1cc(O)cc(O)c1C2=O
- binding [2]: yes
- binding [7]: no
- binding [8]: no

SMILES: NC[C@@H]1O[C@H](O[C@H]2[C@@H](O)[C@H](O[C@@H]3[C@@H](O)[C@H](N)C[C@H](N)[C@H]3O[C@H]3O[C@H](CO)[C@@H](O)[C@H](O)[C@H]3N)O[C@@H]2CO)[C@H](N)[C@@H](O)[C@@H]1O
- binding ([4]; fluorescence 0.61 at 50, 0.34 at 500 μM): yes
- binding ([1]; fluorescence to 0.08 at 50 and 500 μM): yes

SMILES: O=C(N[C@H](CO)[C@H](O)c1ccc([N+](=O)[O-])cc1)C(Cl)Cl
- binding ([4]; no effect at 50 μM): no
- binding ([1]; no effect at 50 μM): no
- binding [3]: no

SMILES: O=C1Nc2ccc(I)cc2/C1=C/c1cc(Br)c(O)c(Br)c1
- binding [2]: yes

SMILES: O=c1c(O)c(-c2cc(O)c(O)c(O)c2)oc2cc(O)cc(O)c12
- binding [2]: yes

SMILES: O=c1c(O)c(-c2ccc(O)c(O)c2)oc2cc(O)cc(O)c12
- binding [2]: yes

More lines, now with the values ahead:

- binding ([2]; not confirmed by GCI): yes
- binding [3]: no
SMILES: CC(=O)c1c(O)c(C)c(O)c(Cc2c(O)c3c(c(C(=O)/C=C/c4ccccc4)c2O)OC(C)(C)C=C3)c1O

- binding [2]: yes
SMILES: COc1ccc(Br)cc1S(=O)(=O)NC(=O)/C=C/c1ccccc1Cc1ccc2ccccc2c1

- binding [5]: yes
- binding [6]: yes
SMILES: C[n+]1c(C=C2C=CN(CCC[N+](C)(C)C)c3ccccc32)sc2ccccc21

- binding [2]: yes
SMILES: NCCOc1cc(C(=O)Nc2cc(OCCN)c3ccccc3n2)nc(C(=O)Nc2cc(OCCN)c3ccccc3n2)c1

- binding [2]: yes
SMILES: O=C(O)C1=CC(=C(c2ccc(O)c(C(=O)O)c2)c2ccc(O)c(C(=O)O)c2)C=CC1=O

- binding [2]: yes
SMILES: O=C1c2c(O)ccc(O)c2C(=O)c2c(NCCNCCO)ccc(NCCNCCO)c21
